Results: publication PMC8222254, “Self-assembly of an anion receptor with metal-dependent kinase inhibition and potent in vitro anti-cancer properties” (Nature Communications, 2021)
Several values for one entry are separate records, joined by “and”; a condition that tells them apart may be missing. Equal entries are not always repeated.

How the values were obtained:
Experiment in all cases: Kinase inhibition screen, cell-free 33P ATP assay at 10 μM
Format in all cases: biochemical
[1] = target: 140 purified human kinases (Homo sapiens, UniProt O95747); details: for % Activity Run 1 / % Activity Run 2: 10 µM
140 purified human kinases (Homo sapiens, UniProt O95747), sequence (O95747 whole entry): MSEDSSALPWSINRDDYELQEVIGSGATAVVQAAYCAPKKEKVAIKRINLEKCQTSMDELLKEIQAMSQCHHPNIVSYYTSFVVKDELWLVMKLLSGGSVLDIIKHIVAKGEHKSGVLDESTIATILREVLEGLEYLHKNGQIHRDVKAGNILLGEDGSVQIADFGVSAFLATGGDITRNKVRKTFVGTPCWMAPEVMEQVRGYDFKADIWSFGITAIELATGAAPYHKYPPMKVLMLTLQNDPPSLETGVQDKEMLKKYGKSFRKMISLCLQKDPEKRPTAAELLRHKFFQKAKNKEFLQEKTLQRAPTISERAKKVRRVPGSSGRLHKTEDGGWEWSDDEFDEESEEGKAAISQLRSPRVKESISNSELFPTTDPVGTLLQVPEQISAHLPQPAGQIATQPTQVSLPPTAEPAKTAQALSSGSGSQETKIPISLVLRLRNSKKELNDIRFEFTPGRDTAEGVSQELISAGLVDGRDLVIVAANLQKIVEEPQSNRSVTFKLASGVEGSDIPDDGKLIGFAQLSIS
Method in brief: (§1)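 Radiometric ^33P ATP cell-free format with purified enzymes; both complexes run at 10 μM in duplicate, results plotted on a kinome map via HGNC symbols.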

[2] = target: 140 purified human kinases (Homo sapiens, UniProt P27361)
140 purified human kinases (Homo sapiens, UniProt P27361), sequence (P27361 whole entry): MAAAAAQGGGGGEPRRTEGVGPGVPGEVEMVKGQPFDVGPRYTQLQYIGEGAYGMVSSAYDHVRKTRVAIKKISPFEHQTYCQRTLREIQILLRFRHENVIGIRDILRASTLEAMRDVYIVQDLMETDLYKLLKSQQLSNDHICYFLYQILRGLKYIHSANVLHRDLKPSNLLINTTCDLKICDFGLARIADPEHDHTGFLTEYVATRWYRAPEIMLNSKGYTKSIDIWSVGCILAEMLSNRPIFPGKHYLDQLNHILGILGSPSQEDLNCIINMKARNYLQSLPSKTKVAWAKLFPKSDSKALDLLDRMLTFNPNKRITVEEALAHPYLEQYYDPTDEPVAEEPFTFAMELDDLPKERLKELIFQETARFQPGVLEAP
Method in brief: as §1

[3] = target: 140 purified human kinases (Homo sapiens, UniProt P29317)
140 purified human kinases (Homo sapiens, UniProt P29317), sequence (P29317 24-976): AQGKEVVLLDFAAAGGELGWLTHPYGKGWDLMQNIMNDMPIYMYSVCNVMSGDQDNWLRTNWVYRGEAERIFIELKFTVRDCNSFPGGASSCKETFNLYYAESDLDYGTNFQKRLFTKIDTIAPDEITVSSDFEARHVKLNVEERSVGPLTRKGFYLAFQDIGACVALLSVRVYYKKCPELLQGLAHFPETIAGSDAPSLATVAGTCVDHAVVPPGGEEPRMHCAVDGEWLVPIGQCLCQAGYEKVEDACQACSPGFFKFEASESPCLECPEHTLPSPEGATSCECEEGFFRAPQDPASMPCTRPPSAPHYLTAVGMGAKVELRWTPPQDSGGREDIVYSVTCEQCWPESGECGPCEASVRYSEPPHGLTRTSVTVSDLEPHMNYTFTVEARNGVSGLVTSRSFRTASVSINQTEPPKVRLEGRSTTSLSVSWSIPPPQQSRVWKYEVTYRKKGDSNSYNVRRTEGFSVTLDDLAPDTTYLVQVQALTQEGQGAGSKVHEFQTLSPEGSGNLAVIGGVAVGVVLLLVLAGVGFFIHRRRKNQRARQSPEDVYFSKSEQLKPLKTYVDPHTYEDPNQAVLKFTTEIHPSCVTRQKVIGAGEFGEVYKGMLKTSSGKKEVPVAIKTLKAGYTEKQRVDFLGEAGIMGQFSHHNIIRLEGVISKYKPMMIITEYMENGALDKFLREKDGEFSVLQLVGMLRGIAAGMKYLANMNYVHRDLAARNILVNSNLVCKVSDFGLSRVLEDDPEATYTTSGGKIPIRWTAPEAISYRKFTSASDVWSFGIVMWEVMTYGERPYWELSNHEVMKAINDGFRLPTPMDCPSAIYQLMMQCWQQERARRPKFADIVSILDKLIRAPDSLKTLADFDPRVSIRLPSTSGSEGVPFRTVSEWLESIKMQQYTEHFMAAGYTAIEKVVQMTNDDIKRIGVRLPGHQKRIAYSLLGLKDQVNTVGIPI
Method in brief: as §1

[4] = target: 140 purified human kinases (Homo sapiens, UniProt P31751); details: PKBb
140 purified human kinases (Homo sapiens, UniProt P31751), sequence (P31751 whole entry): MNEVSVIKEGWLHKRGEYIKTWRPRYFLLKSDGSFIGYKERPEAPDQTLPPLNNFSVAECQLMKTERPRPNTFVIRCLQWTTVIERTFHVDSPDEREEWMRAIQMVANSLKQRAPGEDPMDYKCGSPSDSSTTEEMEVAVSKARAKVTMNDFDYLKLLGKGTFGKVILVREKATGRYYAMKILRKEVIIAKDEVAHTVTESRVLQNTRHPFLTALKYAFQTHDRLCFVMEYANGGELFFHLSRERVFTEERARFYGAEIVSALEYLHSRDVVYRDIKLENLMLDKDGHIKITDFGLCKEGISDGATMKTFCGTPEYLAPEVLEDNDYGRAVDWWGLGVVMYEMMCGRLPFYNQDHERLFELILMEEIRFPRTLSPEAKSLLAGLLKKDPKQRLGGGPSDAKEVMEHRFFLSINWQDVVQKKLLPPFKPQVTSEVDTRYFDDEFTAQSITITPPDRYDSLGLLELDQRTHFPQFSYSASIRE
Method in brief: as §1

[5] = target: 140 purified human kinases (Homo sapiens, UniProt Q16513)
140 purified human kinases (Homo sapiens, UniProt Q16513), sequence (Q16513 whole entry): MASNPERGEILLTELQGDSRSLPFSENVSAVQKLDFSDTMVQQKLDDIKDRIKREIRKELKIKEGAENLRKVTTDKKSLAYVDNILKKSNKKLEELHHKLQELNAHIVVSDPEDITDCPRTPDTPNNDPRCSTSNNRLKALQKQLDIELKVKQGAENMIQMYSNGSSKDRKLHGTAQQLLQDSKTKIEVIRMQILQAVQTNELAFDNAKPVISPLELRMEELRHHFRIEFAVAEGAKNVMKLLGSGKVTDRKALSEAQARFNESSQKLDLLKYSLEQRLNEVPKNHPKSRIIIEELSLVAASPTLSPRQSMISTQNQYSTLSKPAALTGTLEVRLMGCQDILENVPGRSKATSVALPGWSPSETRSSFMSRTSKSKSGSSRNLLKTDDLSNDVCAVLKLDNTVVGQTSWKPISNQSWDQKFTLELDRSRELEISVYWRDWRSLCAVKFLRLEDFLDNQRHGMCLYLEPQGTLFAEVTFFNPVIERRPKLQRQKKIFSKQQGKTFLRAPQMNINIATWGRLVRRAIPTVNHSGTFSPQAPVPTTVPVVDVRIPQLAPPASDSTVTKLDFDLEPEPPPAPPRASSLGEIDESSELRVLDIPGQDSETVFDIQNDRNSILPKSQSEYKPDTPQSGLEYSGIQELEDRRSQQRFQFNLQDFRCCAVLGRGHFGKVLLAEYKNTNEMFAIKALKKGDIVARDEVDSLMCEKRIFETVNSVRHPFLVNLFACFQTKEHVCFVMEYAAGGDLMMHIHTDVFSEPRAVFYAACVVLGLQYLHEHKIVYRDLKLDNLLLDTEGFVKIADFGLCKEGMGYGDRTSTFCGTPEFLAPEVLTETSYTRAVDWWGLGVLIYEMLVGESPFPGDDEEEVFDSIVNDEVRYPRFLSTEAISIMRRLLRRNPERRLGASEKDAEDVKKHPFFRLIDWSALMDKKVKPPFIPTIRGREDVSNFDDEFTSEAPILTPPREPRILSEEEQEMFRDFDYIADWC
Method in brief: as §1

[6] = target: T1, 140 purified human kinases (Homo sapiens, UniProt Q99683)
T1 sequence (Q99683 1-1374): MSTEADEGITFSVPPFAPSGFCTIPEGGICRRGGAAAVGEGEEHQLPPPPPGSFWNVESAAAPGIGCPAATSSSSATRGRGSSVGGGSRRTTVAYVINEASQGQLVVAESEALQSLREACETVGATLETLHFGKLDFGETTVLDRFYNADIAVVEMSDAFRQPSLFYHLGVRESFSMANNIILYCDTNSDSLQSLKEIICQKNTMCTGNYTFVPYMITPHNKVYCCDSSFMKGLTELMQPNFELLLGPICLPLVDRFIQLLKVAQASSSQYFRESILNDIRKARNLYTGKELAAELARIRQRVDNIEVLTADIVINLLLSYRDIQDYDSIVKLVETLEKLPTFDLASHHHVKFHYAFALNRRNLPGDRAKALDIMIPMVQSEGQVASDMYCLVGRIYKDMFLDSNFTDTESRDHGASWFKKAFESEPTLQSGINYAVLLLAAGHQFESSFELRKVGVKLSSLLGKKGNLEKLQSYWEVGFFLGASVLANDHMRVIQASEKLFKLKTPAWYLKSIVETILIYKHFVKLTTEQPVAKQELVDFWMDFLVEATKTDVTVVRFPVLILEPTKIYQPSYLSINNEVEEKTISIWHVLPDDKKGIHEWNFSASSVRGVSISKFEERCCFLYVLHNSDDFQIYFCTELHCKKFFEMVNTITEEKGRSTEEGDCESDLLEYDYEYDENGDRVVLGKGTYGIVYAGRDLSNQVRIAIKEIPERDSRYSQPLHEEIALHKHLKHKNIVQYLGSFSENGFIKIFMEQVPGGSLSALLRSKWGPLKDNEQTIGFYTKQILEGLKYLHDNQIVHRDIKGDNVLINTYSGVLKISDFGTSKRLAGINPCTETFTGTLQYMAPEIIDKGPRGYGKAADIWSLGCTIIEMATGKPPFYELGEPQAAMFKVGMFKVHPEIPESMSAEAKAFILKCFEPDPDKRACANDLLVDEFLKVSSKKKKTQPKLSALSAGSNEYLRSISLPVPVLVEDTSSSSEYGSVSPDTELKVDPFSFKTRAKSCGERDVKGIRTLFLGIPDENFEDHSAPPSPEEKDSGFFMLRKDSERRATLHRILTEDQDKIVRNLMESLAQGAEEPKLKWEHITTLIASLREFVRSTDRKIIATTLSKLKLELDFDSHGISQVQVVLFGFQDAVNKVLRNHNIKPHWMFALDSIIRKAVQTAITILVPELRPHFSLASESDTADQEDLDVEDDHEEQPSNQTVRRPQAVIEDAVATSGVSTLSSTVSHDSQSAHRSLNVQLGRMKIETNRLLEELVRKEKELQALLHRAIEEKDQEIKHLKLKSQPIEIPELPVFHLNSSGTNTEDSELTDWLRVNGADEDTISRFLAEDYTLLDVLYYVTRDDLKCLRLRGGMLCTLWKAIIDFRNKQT
Method in brief: as §1

[7] = target: 140 purified human kinases (Homo sapiens, UniProt Q9H0K1)
Method in brief: as §1

[8] = target: 140 purified human kinases (Homo sapiens, UniProt Q9HBH9)
140 purified human kinases (Homo sapiens, UniProt Q9HBH9), sequence (Q9HBH9 whole entry): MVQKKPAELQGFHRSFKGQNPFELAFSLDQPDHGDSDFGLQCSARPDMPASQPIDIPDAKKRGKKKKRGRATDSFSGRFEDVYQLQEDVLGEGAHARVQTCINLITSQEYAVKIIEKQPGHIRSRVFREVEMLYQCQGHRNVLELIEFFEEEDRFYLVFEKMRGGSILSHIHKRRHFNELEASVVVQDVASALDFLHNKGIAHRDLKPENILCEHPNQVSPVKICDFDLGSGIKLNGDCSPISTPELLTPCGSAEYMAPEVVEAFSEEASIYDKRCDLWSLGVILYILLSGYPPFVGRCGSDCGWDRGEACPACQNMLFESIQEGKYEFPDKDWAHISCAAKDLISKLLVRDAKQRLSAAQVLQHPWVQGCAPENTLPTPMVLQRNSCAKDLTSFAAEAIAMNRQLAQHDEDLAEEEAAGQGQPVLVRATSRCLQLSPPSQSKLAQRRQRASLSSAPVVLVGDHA
Method in brief: as §1

[9] = target: 140 purified human kinases (Homo sapiens, UniProt Q9P1W9)
140 purified human kinases (Homo sapiens, UniProt Q9P1W9), sequence (Q9P1W9 whole entry): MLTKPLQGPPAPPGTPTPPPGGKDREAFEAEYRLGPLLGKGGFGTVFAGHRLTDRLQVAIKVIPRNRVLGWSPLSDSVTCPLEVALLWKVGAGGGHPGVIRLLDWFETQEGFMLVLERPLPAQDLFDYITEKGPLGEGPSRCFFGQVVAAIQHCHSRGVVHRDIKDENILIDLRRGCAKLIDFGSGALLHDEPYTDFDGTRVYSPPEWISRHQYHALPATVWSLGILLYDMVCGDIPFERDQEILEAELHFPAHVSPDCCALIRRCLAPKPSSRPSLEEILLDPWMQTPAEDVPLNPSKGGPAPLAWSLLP
Method in brief: as §1

[10] = target: 140 purified human kinases (Homo sapiens, UniProt Q9P286); details: for % Activity Run 1 / % Activity Run 2: 10 µM
140 purified human kinases (Homo sapiens, UniProt Q9P286), sequence (Q9P286 whole entry): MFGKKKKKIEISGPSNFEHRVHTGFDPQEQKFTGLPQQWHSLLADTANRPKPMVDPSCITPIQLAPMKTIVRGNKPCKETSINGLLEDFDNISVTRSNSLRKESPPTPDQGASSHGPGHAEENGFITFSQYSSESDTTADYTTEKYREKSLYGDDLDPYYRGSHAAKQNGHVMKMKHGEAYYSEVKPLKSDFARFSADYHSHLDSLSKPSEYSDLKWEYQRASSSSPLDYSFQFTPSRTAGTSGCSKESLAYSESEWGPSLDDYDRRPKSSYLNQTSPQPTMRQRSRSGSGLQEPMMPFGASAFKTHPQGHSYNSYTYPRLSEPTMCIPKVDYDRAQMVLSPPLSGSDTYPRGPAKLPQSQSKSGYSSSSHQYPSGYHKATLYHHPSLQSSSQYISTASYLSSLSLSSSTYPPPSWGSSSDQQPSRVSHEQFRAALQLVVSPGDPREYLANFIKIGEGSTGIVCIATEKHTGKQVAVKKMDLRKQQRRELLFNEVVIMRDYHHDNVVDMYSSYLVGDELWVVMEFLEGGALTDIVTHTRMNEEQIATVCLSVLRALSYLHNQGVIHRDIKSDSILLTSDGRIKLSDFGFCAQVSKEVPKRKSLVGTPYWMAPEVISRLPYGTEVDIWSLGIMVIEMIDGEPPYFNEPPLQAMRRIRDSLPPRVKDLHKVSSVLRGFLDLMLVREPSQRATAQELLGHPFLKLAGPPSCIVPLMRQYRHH
Method in brief: as §1

## [Cu+2].[Cu+2].[Cu+2].c1ccc(-c2csc(NCCN(CCNc3nc(-c4ccccn4)cs3)CCNc3nc(-c4ccccn4)cs3)n2)nc1.c1ccc(-c2csc(NCCN(CCNc3nc(-c4ccccn4)cs3)CCNc3nc(-c4ccccn4)cs3)n2)nc1 [[L2Cu3]6+]
[1]; OSR1
  % Activation, Mean value: 48%
  % Inhibition Run 1: -39.6%
  % Inhibition Run 2: -55.9%
  % Inhibition, Mean: -48%
  mean % activity: 148%
  % Activity Run 1: 139.60%
  % Activity Run 2: 155.90%
[1]; OSR1, Run 1
  % activity: 139.6%
[1]; OSR1, Run 2
  % activity: 155.9%
[2]; ERK1
  % Activation, Mean value: 1.15%
  % Inhibition Run 1: 6.5%
  % Inhibition Run 2: -8.8%
  % Inhibition, Mean: -1.15%
  mean % activity: 101%
[2]; ERK1, Run 1
  % activity: 93.5%
[2]; ERK1, Run 2
  % activity: 108.8%
[3]; EPH-A2
  % Inhibition Run 1: 3.5%
  % Inhibition Run 2: 9.8%
  % Inhibition, Mean: 6.65%
  mean % activity: 93%
[3]; EPH-A2, Run 1
  % activity: 96.5%
[3]; EPH-A2, Run 2
  % activity: 90.2%
[4]
  % Inhibition Run 1: 91.7%
  % Inhibition Run 2: 93.5%
  % Inhibition, Mean: 93%
  mean % activity: 7.4%
[4]; Run 1
  % activity: 8.3%
[4]; Run 2
  % activity: 6.5%
[4]; 10 µM
  % Activity inhibition Mean: 92.6%
  % Activity inhibition Run 1: 91.7%
  % Activity inhibition Run 2: 93.5%
  % Activity remaining Run 1: 8.30%
  % Activity remaining Run 2: 6.50%
[5]; PRK2
  % Inhibition Run 1: 87.9%
  % Inhibition Run 2: 85.6%
  % Inhibition, Mean: 87%
  mean % activity: 13%
[5]; PRK2, Run 1
  % activity: 12.1%
[5]; PRK2, Run 2
  % activity: 14.4%
[6]; ASK1
  % Inhibition Run 1: 16.4%
  % Inhibition Run 2: 15.5%
  % Inhibition, Mean: 16%
  mean % activity: 84%
[6]; ASK1, Run 1
  % activity: 83.6%
[6]; ASK1, Run 2
  % activity: 84.5%
[7]; SIK2
  % Inhibition Run 1: 88.3%
  % Inhibition Run 2: 90.4%
  % Inhibition, Mean: 89%
  mean % activity: 11%
[7]; SIK2, Run 1
  % activity: 11.7%
[7]; SIK2, Run 2
  % activity: 9.6%
[8]; MNK2
  % Inhibition Run 1: 59.3%
  % Inhibition Run 2: 57.8%
  % Inhibition, Mean: 59%
  mean % activity: 41%
[8]; MNK2, Run 1
  % activity: 40.7%
[8]; MNK2, Run 2
  % activity: 42.2%
[9]; PIM2
  % Inhibition Run 1: -3.6%
  % Inhibition Run 2: 7%
  % Inhibition, Mean: 1.7%
  mean % activity: 98%
[9]; PIM2, Run 1
  % activity: 103.6%
[9]; PIM2, Run 2
  % activity: 93%
[10]; PAK5
  % Activation, Mean value: 10%
  % Inhibition Run 1: -1.8%
  % Inhibition Run 2: -17.5%
  % Inhibition, Mean: -10%
  mean % activity: 110%
  % Activity Run 1: 101.80%
  % Activity Run 2: 117.50%
[10]; PAK5, Run 1
  % activity: 101.8%
[10]; PAK5, Run 2
  % activity: 117.5%

## CC(=O)[O-].CC(=O)[O-].CC(=O)[O-].CC(=O)[O-].CC(=O)[O-].CC(=O)[O-].[Zn+2].[Zn+2].[Zn+2].c1ccc(-c2csc(NCCN(CCNc3nc(-c4ccccn4)cs3)CCNc3nc(-c4ccccn4)cs3)n2)nc1.c1ccc(-c2csc(NCCN(CCNc3nc(-c4ccccn4)cs3)CCNc3nc(-c4ccccn4)cs3)n2)nc1 [[L2Zn3]6+]
[1]; OSR1
  % Activation, Mean value: 38%
  % Inhibition, Mean: -38%
  % Inhibition, Run 1 / Run 2: -37% and -40%
  mean % activity: 138%
  % Activity Run 1: 137.0%
  % Activity Run 2: 140.0%
[1]; OSR1, duplicate runs
  % activity: 137% and 140%
[2]; ERK1
  % Activation, Mean value: 5%
  % Inhibition, Mean: -5%
  mean % activity: 105%
[2]; ERK1, duplicate runs
  % activity: 115% and 95%
[3]; EPH-A2
  % Inhibition, Mean: 19%
  % Inhibition, Run 1 / Run 2: 21% and 17%
  mean % activity: 81%
[3]; EPH-A2, duplicate runs
  % activity: 79% and 83%
[4]
  % Inhibition, Mean: 65%
  % Inhibition, Run 1 / Run 2: 76% and 55%
  mean % activity: 35%
[4]; duplicate runs
  % activity: 24% and 45%
[5]; PRK2
  % Inhibition, Mean: 71%
  % Inhibition, Run 1 / Run 2: 77% and 65%
  mean % activity: 29%
[5]; PRK2, duplicate runs
  % activity: 23% and 35%
[6]; ASK1
  % Inhibition, Mean: 27%
  % Inhibition, Run 1 / Run 2: 31% and 24%
  mean % activity: 73%
[6]; ASK1, duplicate runs
  % activity: 70% and 76%
[7]; SIK2
  % Inhibition, Mean: 68%
  % Inhibition, Run 1 / Run 2: 72% and 64%
  mean % activity: 32%
[7]; SIK2, duplicate runs
  % activity: 29% and 36%
[8]; MNK2
  % Inhibition, Mean: 33%
  % Inhibition, Run 1 / Run 2: 44% and 22%
  mean % activity: 67%
[8]; MNK2, duplicate runs
  % activity: 57% and 78%
[9]; PIM2
  % Inhibition, Mean: 1.85%
  mean % activity: 98%
[9]; PIM2, duplicate runs
  % activity: 87% and 109%
[10]; PAK5
  % Activation, Mean value: 20%
  % Inhibition, Mean: -20%
  mean % activity: 120%
  % Activity Run 1: 110.0%
  % Activity Run 2: 130.0%
[10]; PAK5, duplicate runs
  % activity: 110% and 130%
